Test [1] deals with T1, human GR (Homo sapiens, UniProt P04150).
T1 sequence (P04150 1-777): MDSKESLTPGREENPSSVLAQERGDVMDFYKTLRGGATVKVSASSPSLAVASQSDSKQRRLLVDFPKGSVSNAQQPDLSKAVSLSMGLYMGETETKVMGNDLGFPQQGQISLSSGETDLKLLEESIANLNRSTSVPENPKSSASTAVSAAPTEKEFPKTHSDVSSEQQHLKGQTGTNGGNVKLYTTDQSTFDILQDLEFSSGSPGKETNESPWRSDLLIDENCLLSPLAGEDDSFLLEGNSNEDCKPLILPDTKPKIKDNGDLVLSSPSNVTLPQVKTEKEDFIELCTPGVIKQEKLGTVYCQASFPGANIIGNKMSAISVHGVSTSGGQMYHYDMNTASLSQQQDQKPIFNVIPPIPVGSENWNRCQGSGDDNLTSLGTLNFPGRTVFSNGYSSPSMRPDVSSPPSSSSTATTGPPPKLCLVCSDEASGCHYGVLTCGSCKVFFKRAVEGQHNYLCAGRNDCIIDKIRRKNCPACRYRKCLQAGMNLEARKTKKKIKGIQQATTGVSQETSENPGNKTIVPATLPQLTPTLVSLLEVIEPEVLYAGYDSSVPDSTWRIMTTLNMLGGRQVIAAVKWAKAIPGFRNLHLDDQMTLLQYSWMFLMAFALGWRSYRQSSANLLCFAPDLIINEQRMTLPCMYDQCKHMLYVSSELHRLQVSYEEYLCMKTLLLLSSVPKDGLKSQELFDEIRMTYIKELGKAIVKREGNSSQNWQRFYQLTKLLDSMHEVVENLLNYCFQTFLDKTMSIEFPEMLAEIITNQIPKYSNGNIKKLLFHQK
In words: Trans-Activation Modulation of Glucocorticoid Receptor (GRAMMER), MMTV-LUC reporter, agonist mode. On the set-up: endogenous in cells. Type of test: cell-based. As to conditions: for Emax: A549, A549 cells, maximum activity, read-out: Transactivation A549 Cells GRAMMER Emax; for EC50: A549 cells, inflection point, read-out: Transactivation A549 Cells GRAMMER IP. The essentials: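 Readout is luciferase from a modified MMTV LTR promoter after 24 h compound exposure alongside 10 nM dexamethasone (100% activity reference), DMSO ≤1%.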

Test [2] has as its target T1, human GR. Description: Transrepression Assay (GITAR), TNFα-β-lactamase reporter in U937 cells. Conditions: for GITAR > GRAMM % SEP: GITAR Emax minus GRAMMER Emax; for EC50: U937 cells, inflection point, read-out: Transrepression U937 Cells GITAR IP. On the set-up: U937 cells contain an endogenous glucocorticoid receptor (GR); endogenous in cells; host or cells: U937 cells stably transfected with the TNF-alpha promoter/beta-lactamase reporter. In kind it is cell-based. The essentials:
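Read-out: CCF2-AM β-lactamase signal after 70–90 min loading at room temperature. U937 TNF-α-promoter reporter cells (endogenous GR), compound 30–45 min at 37 °C, then PMA 5 ng/ml + LPS 100 ng/ml final, ~18 hr. Normalised to 100 nM dexamethasone = 100%.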

Setting [3] is: U-937, U937 cells, maximum activity, read-out: Transrepression U937 Cells GITAR Emax.
[4] abbreviates: U-937, activity repressed by 100 nM dexamethasone alone set as 100%, read-out: maximal activity in the transrepression (GITAR) assay.

Molecules are shown by their SMILES. Some results are limits rather than exact numbers.

On to `Cn1cc(S(=O)(=O)N(CC(O)c2ccccn2)C[C@H]2CCC3=Cc4c(cnn4-c4ccc(F)cc4)C[C@@]32C)c(C(F)(F)F)n1` (stereo partly drawn) [Example 157, N-{[(4αR,5S)-1-(4-fluorophenyl)-4α-methyl-1,4,4α,5,6,7-hexahydrocyclopenta[f]indazol-5-yl]methyl}-N-(2-hydroxy-2-pyridin-2-ylethyl)-1-methyl-3-(trifluoromethyl)-1H-pyrazole-4-sulfonamide], for which the Emax at human GR [1] is 63.6%; at human GR [2] (setting [3]), 93.6%; at human GR [2] (setting [4]), above 5%. In addition, the EC50 stood at 124 nM on human GR [1] and 29.1 nM on human GR [2]. Besides, on human GR [2], the “GITAR > GRAMM % SEP” value stood at 30.0%.

Turning to `C[C@]12Cc3cnn(-c4ccc(F)cc4)c3C=C1CC[C@@H]2CN(CC=O)S(=O)(=O)c1ccccc1F` [Example 158, 2-fluoro-N-{[(4αR,5S)-1-(4-fluorophenyl)-4α-methyl-1,4,4α,5,6,7-hexahydrocyclopenta[f]indazol-5-yl]methyl}-N-(2-oxoethyl)benzenesulfonamide], the Emax on human GR [1] is 36.2%; on human GR [2] (setting [3]), 77.8%; on human GR [2] (setting [4]), above 5%. The EC50 on human GR [1] stood at 747 nM; on human GR [2], 564 nM. Further, the “GITAR > GRAMM % SEP” value at human GR [2] stood at 41.6%.

With `COC(=O)c1ccccc1CCN(C[C@H]1CCC2=Cc3c(cnn3-c3ccc(F)cc3)C[C@@]21C)S(=O)(=O)CC(F)(F)F` [Example 159, methyl 2-(2-{{[(4αR,5S)-1-(4-fluorophenyl)-4α-methyl-1,4,4α,5,6,7-hexahydrocyclopenta[f]indazol-5-yl]methyl}[(2,2,2-trifluoroethyl)sulfonyl]amino}ethyl)benzoate], the Emax at human GR [1] was 28.9%; on human GR [2] (setting [3]), 34.1%; at human GR [2] (setting [4]) it was above 5%. Moreover, the EC50 on human GR [1] was 367 nM; at human GR [2] it was 551 nM. Also, the “GITAR > GRAMM % SEP” value at human GR [2] was 5.2%.

With `COC(=O)c1cc(Cl)ccc1CCN(C[C@H]1CCC2=Cc3c(cnn3-c3ccc(F)cc3)C[C@@]21C)S(=O)(=O)CC(F)(F)F` [Example 160, methyl 5-chloro-2-(2-{{[(4αR,5S)-1-(4-fluorophenyl)-4α-methyl-1,4,4α,5,6,7-hexahydrocyclopenta[f]indazol-5-yl]methyl}[(2,2,2-trifluoroethyl)sulfonyl]amino}ethyl)benzoate], the results for the Emax at human GR [1], at human GR [2] (setting [3]) and on human GR [2] (setting [4]) were 4.3%, 15.1% and above 5%, respectively. In addition, the EC50 at human GR [1] is 547 nM; on human GR [2], 508 nM. Also, the “GITAR > GRAMM % SEP” value at human GR [2] was 10.8%.

`Cc1noc(C)c1S(=O)(=O)NC[C@H]1CCC2=Cc3c(cnn3-c3ccc(F)cc3)C[C@@]21C` [Example 161, N-{[(4αR,5S)-1-(4-fluorophenyl)-4α-methyl-1,4,4α,5,6,7-hexahydrocyclopenta[f]indazol-5-yl]methyl}-3,5-dimethylisoxazole-4-sulfonamide]: the results for the Emax on human GR [1], at human GR [2] (setting [3]) and on human GR [2] (setting [4]) were 18.3%, 45% and above 5%, respectively. For the same molecule, the EC50 on human GR [1] was 419 nM; at human GR [2] it was 930 nM. The “GITAR > GRAMM % SEP” value at human GR [2] was found to be 26.7%.

Turning to `COC(=O)c1ccccc1CS(=O)(=O)N(CC(O)C(F)(F)F)C[C@H]1CCC2=Cc3c(cnn3-c3ccc(F)cc3)C[C@@]21C` (stereo partly drawn) [Example 162, methyl 2-({[{[(4αR,5S)-1-(4-fluorophenyl)-4α-methyl-1,4,4α,5,6,7-hexahydrocyclopenta[f]indazol-5-yl]methyl}(3,3,3-trifluoro-2-hydroxypropyl)amino]sulfonyl}methyl)benzoate], the Emax on human GR [1] is 87.1%; at human GR [2] (setting [3]) it was 90.8%; at human GR [2] (setting [4]), above 5%. The EC50 amounted to 323 nM at human GR [1] and 202 nM at human GR [2]. At human GR [2], the “GITAR > GRAMM % SEP” value was determined as 3.7%.

Regarding `C[C@]12Cc3cnn(-c4ccc(F)cc4)c3C=C1CC[C@@H]2CN(CCc1ccccc1CO)S(=O)(=O)CC(F)(F)F` [Example 163, 2,2,2-trifluoro-N-{[(4αR,5S)-1-(4-fluorophenyl)-4α-methyl-1,4,4α,5,6,7-hexahydrocyclopenta[f]indazol-5-yl]methyl}-N-{2-[2-(hydroxymethyl)phenyl]ethyl}ethanesulfonamide], the Emax on human GR [1] is 48.4%; at human GR [2] (setting [3]), 86.9%; on human GR [2] (setting [4]), above 5%. The EC50 at human GR [1] came to 241 nM; at human GR [2] it was 342 nM. Also, the “GITAR > GRAMM % SEP” value on human GR [2] is listed as 38.6%.

`C[C@]12Cc3cnn(-c4ccc(F)cc4)c3C=C1CC[C@@H]2CN(CC(O)C(F)(F)F)S(=O)(=O)Cc1ccccc1C(=O)O` (stereo partly drawn) [Example 164, 2-({[{[(4αR,5S)-1-(4-fluorophenyl)-4α-methyl-1,4,4α,5,6,7-hexahydrocyclopenta[f]indazol-5-yl]methyl}(3,3,3-trifluoro-2-hydroxypropyl)amino]sulfonyl}methyl)benzoic acid]: the Emax at human GR [1] is 58.3%; at human GR [2] (setting [3]), 81.3%; on human GR [2] (setting [4]), above 5%. For the same molecule, the EC50 at human GR [1] is 1080 nM; on human GR [2], 1250 nM. The “GITAR > GRAMM % SEP” value on human GR [2] turned out to be 23.0%.

Consider `C[C@]12Cc3cnn(-c4ccc(F)cc4)c3C=C1CC[C@@H]2CN(CCc1ccccn1)S(=O)(=O)Cc1ccccn1` [Example 165, N-{[(4αR,5S)-1-(4-fluorophenyl)-4α-methyl-1,4,4α,5,6,7-hexahydrocyclopenta[f]indazol-5-yl]methyl}-1-pyridin-2-yl-N-(2-pyridin-2-ylethyl)methanesulfonamide], for which the Emax is 37.8% at human GR [1], 61.1% on human GR [2] (setting [3]) and above 5% on human GR [2] (setting [4]). Moreover, the EC50 at human GR [1] worked out at 306 nM; at human GR [2], 286 nM. Besides, the “GITAR > GRAMM % SEP” value on human GR [2] was 23.4%.

Consider `C[C@]12Cc3cnn(-c4ccc(F)cc4)c3C=C1CC[C@@H]2CN(CCc1ccccn1)S(=O)(=O)Cc1ccncc1` [Example 166, N-{[(4αR,5S)-1-(4-fluorophenyl)-4α-methyl-1,4,4α,5,6,7-hexahydrocyclopenta[f]indazol-5-yl]methyl}-1-pyridin-4-yl-N-(2-pyridin-2-ylethyl)methanesulfonamide], for which the Emax is 56.4% at human GR [1], 71.7% at human GR [2] (setting [3]) and above 5% at human GR [2] (setting [4]). For the same molecule, the EC50 at human GR [1] amounted to 303 nM; at human GR [2] it was 549 nM. Besides, at human GR [2], the “GITAR > GRAMM % SEP” value turned out to be 15.3%.

Take `C[C@]12Cc3cnn(-c4ccc(F)cc4)c3C=C1CC[C@@H]2CN(CC(O)C(F)(F)F)S(=O)(=O)Cc1ccccc1C(N)=O` (stereo partly drawn) [Example 167, 2-({[{[(4αR,5S)-1-(4-fluorophenyl)-4α-methyl-1,4,4α,5,6,7-hexahydrocyclopenta[f]indazol-5-yl]methyl}(3,3,3-trifluoro-2-hydroxypropyl)amino]sulfonyl}methyl) benzamide]: the Emax at human GR [1] is 74.9%; at human GR [2] (setting [3]) it was 87.4%; at human GR [2] (setting [4]), above 5%. Besides, the EC50 at human GR [1] was found to be 150 nM; on human GR [2], 159 nM. Besides, the “GITAR > GRAMM % SEP” value at human GR [2] turned out to be 12.5%.

For `Cc1noc(C)c1S(=O)(=O)N(C[C@H]1CCC2=Cc3c(cnn3-c3ccc(F)cc3)C[C@@]21C)C[C@@H](C)O` [Example 168, N-{[(4αR,5S)-1-(4-fluorophenyl)-4α-methyl-1,4,4α,5,6,7-hexahydrocyclopenta[f]indazol-5-yl]methyl}-N-[(2R)-2-hydroxypropyl]-3,5-dimethylisoxazole-4-sulfonamide], the Emax was 48.1% at human GR [1], 83.1% on human GR [2] (setting [3]) and above 5% on human GR [2] (setting [4]). The EC50 is 123 nM on human GR [1] and 119 nM at human GR [2]. For the same molecule, the “GITAR > GRAMM % SEP” value on human GR [2] was determined as 35.0%.
